Active and inactive are the calls of the source. The rule behind the calls is not given here.
Key:
[1] = target: T1, Amyloid-beta precursor protein (Homo sapiens, UniProt P05067); experiment: Inhibition of amyloid beta 42 (unknown origin) aggregation at 50 uM incubated for 24 hrs by ThT assay relative to control
[2] = target: T1, Amyloid-beta precursor protein; experiment: Inhibition of amyloid beta 42 (unknown origin) aggregation incubated for 24 hrs by ThT assay
[3] = Antioxidant activity assessed as ABTS radical scavenging activity incubated for 10 min by spectrophotometric analysis; type: functional
Cholinesterase = Cholinesterase (Homo sapiens, UniProt P06276); experiment: Inhibition of BChE (unknown origin) using BTCI as substrate preincubated for 15 min followed by substrate addition measured after 40 min by Ellman's method
Sequence of Cholinesterase (P06276 whole entry): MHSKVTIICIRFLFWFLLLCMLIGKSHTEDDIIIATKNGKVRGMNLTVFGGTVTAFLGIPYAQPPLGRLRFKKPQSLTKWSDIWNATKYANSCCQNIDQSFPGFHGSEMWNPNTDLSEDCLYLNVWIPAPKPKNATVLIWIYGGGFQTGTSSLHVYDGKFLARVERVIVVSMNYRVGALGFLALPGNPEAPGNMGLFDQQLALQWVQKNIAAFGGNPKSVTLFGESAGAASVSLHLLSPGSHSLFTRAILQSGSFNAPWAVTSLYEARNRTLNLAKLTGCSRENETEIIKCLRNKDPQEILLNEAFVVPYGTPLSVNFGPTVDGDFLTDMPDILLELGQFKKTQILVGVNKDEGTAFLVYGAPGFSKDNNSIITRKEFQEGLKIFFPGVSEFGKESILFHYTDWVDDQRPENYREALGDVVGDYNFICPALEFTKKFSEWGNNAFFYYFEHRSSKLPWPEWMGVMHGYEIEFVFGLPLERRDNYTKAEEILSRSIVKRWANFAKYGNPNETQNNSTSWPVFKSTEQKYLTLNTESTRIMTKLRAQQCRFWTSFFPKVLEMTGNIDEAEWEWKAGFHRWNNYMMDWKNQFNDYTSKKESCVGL

Acetylcholinesterase = Acetylcholinesterase (Homo sapiens, UniProt P22303); experiment: Inhibition of AChE (unknown origin) using ATCI as substrate preincubated for 15 min followed by substrate addition measured after 40 min by Ellman's method
Sequence of Acetylcholinesterase (P22303 whole entry): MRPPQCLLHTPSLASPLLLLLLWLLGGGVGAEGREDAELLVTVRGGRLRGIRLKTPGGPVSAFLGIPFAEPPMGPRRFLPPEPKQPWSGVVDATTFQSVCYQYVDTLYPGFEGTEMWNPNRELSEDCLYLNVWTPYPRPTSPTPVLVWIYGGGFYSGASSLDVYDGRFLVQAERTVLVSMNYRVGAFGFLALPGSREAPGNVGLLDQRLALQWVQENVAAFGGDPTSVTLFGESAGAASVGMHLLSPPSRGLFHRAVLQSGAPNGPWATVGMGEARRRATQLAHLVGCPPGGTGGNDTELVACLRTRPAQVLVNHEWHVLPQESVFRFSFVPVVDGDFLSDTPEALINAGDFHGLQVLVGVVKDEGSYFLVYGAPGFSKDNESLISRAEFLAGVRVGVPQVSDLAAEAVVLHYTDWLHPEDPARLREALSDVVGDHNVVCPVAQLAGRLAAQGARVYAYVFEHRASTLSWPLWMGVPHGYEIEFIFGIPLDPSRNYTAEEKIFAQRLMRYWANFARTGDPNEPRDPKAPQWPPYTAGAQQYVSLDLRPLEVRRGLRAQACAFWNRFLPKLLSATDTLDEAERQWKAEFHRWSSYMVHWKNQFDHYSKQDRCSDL

[4] = Selectivity ratio, ratio of inhibition of BChE (unknown origin) to inhibition of AChE (unknown origin)
[5] = target: T1, Amyloid-beta precursor protein; experiment: Inhibition of amyloid beta 42 (unknown origin) aggregation assessed as reduction in amyloid beta fibril formation incubated for 72 hrs by Congo Red dye based UV- spectrophotometric analysis

T1 sequence (P05067 whole entry): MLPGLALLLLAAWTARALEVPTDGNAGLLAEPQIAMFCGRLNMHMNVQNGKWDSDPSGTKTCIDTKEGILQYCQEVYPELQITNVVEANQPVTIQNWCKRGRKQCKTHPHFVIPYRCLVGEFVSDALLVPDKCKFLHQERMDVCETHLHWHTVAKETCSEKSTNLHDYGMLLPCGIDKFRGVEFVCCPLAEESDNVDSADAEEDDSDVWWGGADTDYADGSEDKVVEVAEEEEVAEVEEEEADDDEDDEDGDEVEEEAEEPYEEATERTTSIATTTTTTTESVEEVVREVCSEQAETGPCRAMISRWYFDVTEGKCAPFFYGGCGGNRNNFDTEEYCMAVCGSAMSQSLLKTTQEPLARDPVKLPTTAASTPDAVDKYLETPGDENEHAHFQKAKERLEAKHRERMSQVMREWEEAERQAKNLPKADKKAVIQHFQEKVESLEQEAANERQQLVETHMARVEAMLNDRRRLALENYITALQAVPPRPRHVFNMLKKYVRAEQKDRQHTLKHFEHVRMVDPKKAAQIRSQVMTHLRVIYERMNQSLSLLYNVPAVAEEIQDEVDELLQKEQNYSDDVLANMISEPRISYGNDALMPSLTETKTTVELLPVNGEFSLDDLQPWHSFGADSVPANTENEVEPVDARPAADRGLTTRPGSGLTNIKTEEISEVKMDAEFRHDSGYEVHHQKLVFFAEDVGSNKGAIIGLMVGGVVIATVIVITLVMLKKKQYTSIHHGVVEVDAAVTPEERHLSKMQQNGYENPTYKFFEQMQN

Row | Structure (SMILES) | inhibition [1] | IC50 [2] [µM] | IC50 [3] [µM] | IC50 (Cholinesterase) [µM] | IC50 (Acetylcholinesterase) [µM] | Ratio IC50 [4] | inhibition [5]
1 | COc1cc(O)c2c(c1)C[C@@H]1c3c(cc4c(c3-2)OCO4)CCN1C | 15.1% | > 50 | 14.8 | 94.5 | 85 | 1.1 | –
2 | COc1cc(O)cc2c1-c1c3c(cc4c1[C@@H](C2)N(C)CC4)OCO3 | 76% | 35.7 | 16.5 | > 300 | > 300 | – | Active
3 | COc1ccc2c(c1)C[C@@H]1c3c(cc4c(c3-2)OCO4)CCN1C | 38.2% | > 50 | > 50 | 36.4 | 26.2 | 1.4 | –
4 | COc1cc(O)c2c(c1)C[C@H]1NCCc3c(OC)c4c(c-2c31)OCO4 | 44.5% | > 50 | 13.5 | 141 | 162 | 0.9 | –
5 | COc1cc(O)c2c(c1)C[C@@H]1c3c(cc4c(c3-2)OCO4)CC[N@+]1(C)[O-] | 37.9% | > 50 | 9.9 | > 300 | > 300 | – | –
6 | COc1cc2c(cc1OC)[C@@H]1Cc3ccc(O)c(OC)c3CN1CC2 | 10.7% | > 50 | > 50 | 124 | 211 | 0.6 | –
7 | COC1=CC(=O)c2c(cc3c4c(cc5c(c24)OCO5)CCN3C)C1=O | 30.7% | > 50 | > 50 | 83.5 | 221 | 0.4 | –
8 | COc1cc2c(cc1O)[C@@H]1Cc3ccc(OC)c(O)c3CN1CC2 [SCOULERINE] | 3.3% | > 50 | 43.8 | 61.3 | 143 | 0.4 | –
9 | COc1ccc2c(c1OC)c1c3c4c(cc5c(c42)OCO5)CCN3C(=O)C1=O | 10.9% | > 50 | > 50 | 251 | 33 | 7.6 | –
10 | COc1cc(O)c2c(c1)C[C@H]1NCCc3cc4c(c-2c31)OCO4 | 10.2% | > 50 | > 50 | > 300 | > 300 | – | –
11 | COc1cc2c(c(O)c1OC)CC[N@+]1(C)Cc3c(ccc(O)c3OC)C[C@@H]21 | inactive | – | 43.6 | > 300 | 131 | > 2.3 | –
12 | COc1cc2c(c(O)c1OC)CC[n+]1cc3c(OC)c(O)ccc3cc1-2 | inactive | – | > 50 | > 300 | 16.4 | > 18.3 | –
13 | O=C1C(=O)N2CCc3cc4c(c5c3c2c1c1ccccc15)OCO4 | 47.6% | > 50 | > 50 | 13.7 | 51.3 | 0.3 | –
14 | COc1ccc2c(c1)C(=O)c1nccc3cc4c(c-2c13)OCO4 [ATHEROSPERMIDINE] | 86.2% | 31.9 | > 50 | > 300 | 10.9 | > 27.5 | Active
15 | COc1cc2c(c(O)c1OC)CCN1Cc3c(ccc(O)c3OC)C[C@@H]21 | inactive | – | > 50 | > 300 | 89 | > 3.4 | –
16 | COc1ccc(C[C@H]2c3c(ccc(OC)c3O)CCN2C)cc1 | 26.6% | > 50 | 38.3 | 33 | 25.6 | 1.3 | –
17 | Cc1c(C)c2c(c(C)c1O)CCC(C)(C(=O)O)O2 (stereo unspecified) [TROLOX] | – | – | 11 | – | – | – | –
18 | COc1cc2c(cc1O)CC[n+]1cc3c(OC)c(O)ccc3cc1-2 | 30% | 50 | 26.5 | 119 | 17.8 | 6.7 | –
19 | COC1=C(CC(=O)CCc2ccccc2)C(=O)O[C@@H]1O | 74.4% | 26.6 | > 50 | > 300 | > 300 | – | Active
20 | COc1cc(O)c2c(c1)C[C@@H]1c3c(cc4c(c3-2)OCO4)CC[N@@+]1(C)[O-] | 32.8% | > 50 | > 50 | > 300 | > 300 | – | –
21 | COc1ccc2c(c1)C[C@H]1NCCc3cc4c(c-2c31)OCO4 | 28% | > 50 | > 50 | 68.5 | 126 | 0.5 | –

— ChEMBL document CHEMBL5390208, “Bioactive Isoquinoline Alkaloids with Diverse Skeletons from Fissistigma polyanthum” (J Nat Prod, 2023)
